Results reported in patent US20240132449A1, “HETEROCYCLIC COMPOUNDS AND METHODS OF USE THEREOF” (1cBio, Inc., priority 2022, published 2024).
Structures can show the parent of a compound that is named as a salt.

Key:
PARP1 = PARP1 (Homo sapiens, UniProt P09874); assay: PARP1 fluorescence polarization binding assay; conditions: binding IC50, GST-tagged PARP1 20 nM, PARPi-FL 3 nM
Outline: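 Competitive FP binding: 20 nM GST-tagged PARP1 preincubated with compound 30 min at RT, then 3 nM PARPi-FL probe for 4 h at RT; buffer 50 mM Tris pH 8.0, 10 mM MgCl2, 150 mM NaCl. 10-point 3-fold dilutions; % inhibition from mP versus controls, IC50 by four-parameter fit, reported in ranges.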

MDA-MB-436 cells = assay: Colony formation assay; assay type: cell-based; conditions: Homo sapiens, seeding density 2000-4000 cells/well and treatment time 12-14 days
Description: A colony formation assay was performed to assess the activity of test compounds. MDA-MB-436 cells were harvested, counted and seeded in culture medium (DMEM+10% FBS+1% PS) at a specified density in a volume of 600-1000 μL per well in a 24-well cell culture plate. The plates were incubated overnight at 37° C. in a 5% CO2 incubator. Test compounds were dissolved in DMSO and added to the plate in duplicate wells for each concentration tested. On day 7, the supernatant was removed and 1000 μL of freshly diluted compounds were added to the plates. The plates were returned to incubator to continue incubation. After treatment with the compounds for a specified number of days, e.g. 10-14 days, detection was performed. For detection, the plate was incubated for 20 min after removing the medium and adding fixing solution. Subsequently, the fixing solution was removed and the plates washed with PBS. The plates were then stained with staining solution (0.1% (w/v) crystal violet). After removal of the staining solution, the plates were washed with PBS and scanned on a LICOR imager using the 700 nm channel.

Chain of PARP1 (P09874 whole entry): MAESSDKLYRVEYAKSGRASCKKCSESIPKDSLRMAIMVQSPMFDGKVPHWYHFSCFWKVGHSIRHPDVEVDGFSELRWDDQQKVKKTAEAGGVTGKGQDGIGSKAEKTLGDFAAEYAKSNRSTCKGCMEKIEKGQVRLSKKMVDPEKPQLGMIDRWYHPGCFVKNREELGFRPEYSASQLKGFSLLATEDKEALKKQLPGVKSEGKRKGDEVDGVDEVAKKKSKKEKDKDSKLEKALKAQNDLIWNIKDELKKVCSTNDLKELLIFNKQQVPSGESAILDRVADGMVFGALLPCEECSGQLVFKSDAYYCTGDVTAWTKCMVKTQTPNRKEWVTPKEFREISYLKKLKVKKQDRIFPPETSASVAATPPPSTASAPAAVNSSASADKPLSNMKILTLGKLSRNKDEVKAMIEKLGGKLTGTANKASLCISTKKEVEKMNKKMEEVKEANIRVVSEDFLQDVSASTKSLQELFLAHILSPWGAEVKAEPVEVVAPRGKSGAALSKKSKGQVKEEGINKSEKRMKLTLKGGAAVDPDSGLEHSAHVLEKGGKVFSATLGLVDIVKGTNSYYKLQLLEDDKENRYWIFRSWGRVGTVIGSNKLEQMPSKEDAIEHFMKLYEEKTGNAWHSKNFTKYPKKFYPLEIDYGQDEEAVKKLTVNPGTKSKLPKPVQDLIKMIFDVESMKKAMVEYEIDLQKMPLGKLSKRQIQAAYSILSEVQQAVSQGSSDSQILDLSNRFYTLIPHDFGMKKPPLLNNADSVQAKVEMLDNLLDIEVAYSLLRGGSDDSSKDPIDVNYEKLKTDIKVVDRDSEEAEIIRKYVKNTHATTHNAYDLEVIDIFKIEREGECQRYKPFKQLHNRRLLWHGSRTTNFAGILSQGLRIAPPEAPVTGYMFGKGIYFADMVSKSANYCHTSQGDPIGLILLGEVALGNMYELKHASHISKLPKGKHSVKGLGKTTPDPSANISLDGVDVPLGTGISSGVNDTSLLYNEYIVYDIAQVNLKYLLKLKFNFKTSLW

Structure (SMILES)	IC50 (PARP1) [nM]	inhibition at 0.3 µM (MDA-MB-436 cells) [%]	inhibition at 3 µM (MDA-MB-436 cells) [%]	inhibition at 30 µM (MDA-MB-436 cells) [%]
CCn1c(=O)[nH]c2cc(CN3CCN(c4ccc(C(=O)NC)nc4C)CC3)ccc2c1=S [Compound 51, 5-(4-((3-ethyl-2-oxo-4-thioxo-1,2,3,4-tetrahydroquinazolin-7-yl)methyl)piperazin-1-yl)-N,6-dimethylpicolinamide formate]	< 100	≥ 66.7	≥ 66.7	≥ 66.7
CCn1c(=O)[nH]c2cc(CN3CCN(c4ccc(C(=O)NC)nc4C)CC3)ccc2c1=O [Compound 16, 5-{4-[(3-ethyl-2,4-dioxo-1H-quinazolin-7-yl)methyl]piperazin-1-yl}-N,6-dimethylpyridine-2-carboxamide]	< 100	≥ 66.7	≥ 66.7	≥ 66.7
CCn1c(=O)[nH]c2cc(CN3CCN(c4ccc(C(=O)NC)nc4C)CC3)sc2c1=O [Compound 188, 5-(4-((3-ethyl-2,4-dioxo-1,2,3,4-tetrahydrothieno[3,2-d]pyrimidin-6-yl)methyl)piperazin-1-yl)-N,6-dimethylpicolinamide]	< 100	≥ 66.7	≥ 66.7	≥ 66.7
CCn1c(=O)[nH]c2cc(CN3CCN(c4ccc(C(=O)NC)nc4)CC3)ccc2c1=O [Compound 3, 5-(4-((3-ethyl-2,4-dioxo-1,2,3,4-tetrahydroquinazolin-7-yl)methyl)piperazin-1-yl)-N-methylpicolinamide formate]	< 100	≥ 66.7	≥ 66.7	≥ 66.7
CCN1Cc2ccc(CN3CCN(c4ccc(C(=O)NC)nc4)CC3)cc2NC1=O [Compound 196, 5-(4-((3-ethyl-2-oxo-1,2,3,4-tetrahydroquinazolin-7-yl)methyl)piperazin-1-yl)-N-methylpicolinamide formate]	< 100	< 33.3	33.3 to 66.7	33.3 to 66.7
